The values that follow come from US20100119599A1 (ARCHER PHARMACEUTICALS, INC., priority 2006, published 2010).

For one assay, the system named is Aβ1-42. The experiment in a line: Measurement of Aβ1-42 in culture medium of 7W WT APP751 CHO cells by ELISA.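 As to Aβ1-42 (% of control): 5 µM test compound but RI-coded compounds at 10 µM for 24 hours.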 To be noted: for activity at 5 µM: Cricetulus griseus, 5 μM test compound, CHO cells stably transfected with human APP751, culture medium, ELISA, control DMSO; for Aβ1-42 (% of control): CHO cells that overexpress APP751, zero = below the detection limit of the assay. The assay is classed as cell-based, Chinese hamster.

For the next assay, the system named is Aβ1-40. The assay is described as follows: Measurement of Aβ1-40 in culture medium of 7W WT APP751 CHO cells by ELISA.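 As to all read-outs here: 5 µM test compound but RI-coded compounds at 10 µM for 24 hours.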 The assay is classed as cell-based, Chinese hamster. Particulars: for activity at 5 µM: Cricetulus griseus, 5 μM test compound, CHO cells stably transfected with human APP751, culture medium, ELISA, control DMSO; for Aβ1-40 (% of control): CHO cells that overexpress APP751, zero = below the detection limit of the assay. (In general: ELISA stands for enzyme-linked immunosorbent assay.)

Setting [1] is: Table 1, 0 = no detectable amount, read-out: Aβ1-42 (% of control).
Where [2] appears, read: Table 1, 0 = no detectable amount.

Like-named read-outs stand apart in the source and are kept apart here.

Turning to `CCOc1ccccc1C1C(C(=O)OCC(C)C)=C(C)NC2=C1C(=O)CC(c1ccc(Cl)cc1)C2` (stereo not shown) [ST017038, 2-methyipropyl 7-(4-chlorophenyl)-4-(2-ethoxyphenyl)-2-methyl-5-oxo-1,4,6,7,8-pentahydroquinoline-3-carboxylate], the activity at 5 µM with Aβ1-42 (setting [1]) worked out at 81.9%; with Aβ1-40 (setting [2]) it was 42.7%.
For `CCCCOC(=O)C1=C(C)NC2=C(C(=O)CC(C)(C)C2)C1c1ccc(Cl)cc1` (stereo not shown) [ST024431, butyl 4-(4-chlorophenyl)-2,7,7-trimethyl-5-oxo-1,4,6,7,8-pentahydroquinoline-3-carboxylate], in that order: 0% and 0%.
For `CCCCCOC(=O)C1=C(C)NC2=C(C(=O)CC(C)(C)C2)C1c1ccc(Cl)c(Cl)c1` (stereo not shown) [ST216061, pentyl 4-(3,4-dichlorophenyl)-2,7,7-trimethyl-5-oxo-1,4,6,7,8-pentahydroquinoline-3-carboxylate], in that order: 0% and 0%.
In the case of `CCOC(=O)C1=CN(c2cc(C)ccc2C)C=C(C(=O)OCC)C1c1cccc(OC)c1OC` [ST052450, ethyl 4-(2,3-dimethoxyphenyl)-1-(2,5-dimethylphenyl)-5-(ethoxycarbonyl)-1,4-dihydropyridine-3-carboxylate], the “Aβ1-42 (% of control)” value in the assay with Aβ1-42 is given as 12.04 % of control. For the same molecule, the “Aβ1-40 (% of control)” value in the assay with Aβ1-40 was 5.249 % of control.
Regarding `COc1ccccc1C1C(C(=O)OC2CCCCC2)=C(C)NC2=C1C(=O)CCC2` (stereo not shown) [ST013339, cyclohexyl 4-(2-methoxyphenyl)-2-methyl-5-oxo-1,4,6,7,8-pentahydroquinoline-3-carboxylate], the activity at 5 µM in the assay on Aβ1-42 (setting [1]) turned out to be 6.87%; in the assay on Aβ1-40 (setting [2]), 43.6%.
For `COc1ccc(OC)c(C2C(C(=O)OCCc3ccccc3)=C(C)NC3=C2C(=O)CCC3)c1` (stereo not shown) [ST052373, 2-phenylethyl 4-(2,5-dimethoxyphenyl)-2-methyl-5-oxo-1,4,6,7,8-pentahydroquinoline-3-carboxylate] the same measures were 37.4% and 39.4%.
For `COCCOC(=O)C1=C(C)NC2=C(C(=O)CCC2)C1c1cc(OC)c(OC)cc1Br` (stereo not shown) [ST052462, 2-methoxyethyl 4-(2-bromo-4,5-dimethoxyphenyl)-2-methyl-5-oxo-1,4,6,7,8-pentahydroquinoline-3-carboxylate] the same measures were 94.3% and 61.8%.
As to `CC1=C(C(=O)Nc2ccccc2)C(c2ccsc2)C(C#N)=C(SCC(=O)Nc2ccc(C)c(Cl)c2)N1` (stereo not shown) [RI_67], in the assay on Aβ1-42, the “Aβ1-42 (% of control)” value is 51.8 % of control. The “Aβ1-40 (% of control)” value in the assay with Aβ1-40 is recorded as 42.6 % of control.
Turning to `CC1=C(C(=O)OCc2ccccc2)C(c2ccccc2)C2=C(CC(C)(C)CC2=O)N1` (stereo not shown) [ST013215, phenylmethyl 2,7,7-trimethyl-5-oxo-4-phenyl-1,4,6,7,8-pentahydroquinoline-3-carboxylate], the activity at 5 µM in the assay on Aβ1-42 (setting [1]) was found to be 88.6%; with Aβ1-40 (setting [2]), 0%.
For `CC1=C(C(=O)OC2CCCCC2)C(c2ccc(C)cc2)C2=C(CC(c3ccccc3)CC2=O)N1` (stereo not shown) [ST013438, cyclohexyl 2-methyl-4-(4-methylphenyl)-5-oxo-7-phenyl-1,4,6,7,8-pentahydroquinoline-3-carboxylate], in that order: 93.5% and 31.5%.
Consider `CC1=C(C(=O)OCC2CCCO2)C(c2cccc(Cl)c2)C2=C(CC(C)(C)CC2=O)N1` (stereo not shown) [ST017242, oxolan-2-ylmethyl 4-(3-chlorophenyl)-2,7,7-trimethyl-5-oxo-1,4,6,7,8-pentahydroquinoline-3-carboxylate], for which the activity at 5 µM worked out at 0% in the assay on Aβ1-42 (setting [1]) and 49.6% in the assay on Aβ1-40 (setting [2]).
On to `COc1ccc(OC)c(C2C(C(=O)OC3CCCCC3)=C(C)NC3=C2C(=O)CCC3)c1` (stereo not shown) [ST013270, cyclohexyl 4-(2,5-dimethoxyphenyl)-2-methyl-5-oxo-1,4,6,7,8-pentahydroquinoline-3-carboxylate], for which the activity at 5 µM in the assay with Aβ1-42 (setting [1]) turned out to be 35%; with Aβ1-40 (setting [2]) it was 19.7%.
Take `CC1=C(C(=O)Nc2ccccc2)C(c2cccs2)C(C#N)=C(SCC(=O)NC2CCC2)N1` (stereo not shown) [RI_24]: in the assay on Aβ1-42, the “Aβ1-42 (% of control)” value is recorded as 44.1 % of control. Further, the “Aβ1-40 (% of control)” value with Aβ1-40 was 80.8 % of control.
For `CCc1cccc(NC(=O)CSC2=C(C#N)C(c3cccs3)C(C(=O)Nc3ccccc3)=C(C)N2)c1` (stereo not shown) [RI_45] the same measures were 61.3 % of control and 82.7 % of control.
Consider `CCOC(=O)C1=C(C)NC2=C(C(=O)CCC2)C1c1ccc(OCc2ccccc2Cl)c(OC)c1` (stereo not shown) [ST028591, ethyl 4-{4-[(2-chlorophenyl)methoxy]-3-methoxyphenyl}-2-methyl-5-oxo-1,4,6,7,8-pentahydroquinoline-3-carboxylate], for which the results for the activity at 5 µM with Aβ1-42 (setting [1]) and in the assay on Aβ1-40 (setting [2]) were 69.6% and 98.3%, respectively.
For `CCCOc1ccccc1C1C(C(=O)OCCc2ccccc2)=C(C)NC2=C1C(=O)CCC2` (stereo not shown) [ST015060, 2-phenylethyl 2-methyl-5-oxo-4-(2-propoxyphenyl)-1,4,6,7,8-pentahydroquinoline-3-carboxylate] the same measures were 0% and 0%.
For `CC1=C(C(=O)OCc2ccccc2)C(c2ccccc2C(F)(F)F)C2=C(CC(C)(C)CC2=O)N1` (stereo not shown) [ST014881, phenylmethyl 2,7,7-trimethyl-5-oxo-4-[2-(trifluoromethyl)phenyl]-1,4,6,7,8-pentahydroquinoline-3-carboxylate] the same measures were 49.9% and 0%.
Consider `CCOC(=O)C1=C(C)NC2=C(C(=O)CCC2)C1c1ccc(OCC)cc1` (stereo not shown) [ST213781, ethyl 4-(4-ethoxyphenyl)-2-methyl-5-oxo-1,4,6,7,8-pentahydroquinoline-3-carboxylate], for which the activity at 5 µM with Aβ1-42 (setting [1]) amounted to 81.3%; with Aβ1-40 (setting [2]) it was 66.8%.
Consider `N#CC1=C(N)N(c2sc3c(c2C#N)CCCC3)C2=C(CCC2)C1(C(F)(F)F)C(F)(F)F` [ST044920, 2-[2-amino-4,4-bis(trifluoromethyl)-3-cyano-1,4,5,6,7-pentahydrocyclopenta[1,2-b]pyridinyl]-4,5,6,7-tetrahydrobenzo[b]thiophene-3-carbonitrile], for which the activity at 5 µM in the assay with Aβ1-42 (Table 3, read-out: Aβ-42 (% of control)) was 48.2%; in the assay with Aβ1-40 (Table 3), 76.9%.
For `COC(=O)C1=C(C)NC2=C(C(=O)CCC2)C1c1ccc(OC)c(OC)c1OC` (stereo not shown) [ST013147, methyl 2-methyl-5-oxo-4-(2,3,4-trimethoxyphenyl)-1,4,6,7,8-pentahydroquinoline-3-carboxylate], the activity at 5 µM amounted to 45.4% in the assay on Aβ1-42 (setting [1]) and 72% with Aβ1-40 (setting [2]).
For `CCc1ccc(C2C(C(=O)OC(C)C)=C(C)NC3=C2C(=O)CCC3)cc1` (stereo not shown) [ST013191, methylethyl 4-(4-ethylphenyl)-2-methyl-5-oxo-1,4,6,7,8-pentahydroquinoline-3-carboxylate] the same measures were 98% and 33.4%.
For `CC1=C(C(=O)OCCOc2ccccc2)C(c2ccncc2)C2=C(CC(c3ccccc3)CC2=O)N1` (stereo not shown) [ST017084, 2-phenoxyethyl 2-methyl-5-oxo-7-phenyl-4-(4-pyridyl)-1,4,6,7,8-pentahydroquinoline-3-carboxylate] the same measures were 84.7% and 54.3%.
For `COc1ccc(C2C(C(=O)OC(C)C)=C(C)NC3=C2C(=O)CC(C)(C)C3)cc1Br` (stereo not shown) [ST215449, methylethyl 4-(3-bromo-4-methoxyphenyl)-2,7,7-trimethyl-5-oxo-1,4,6,7,8-pentahydroquinoline-3-carboxylate], in that order: 25.7% and 24.5%.
For `CC1=C(C(=O)OCc2ccccc2)C(c2coc3ccc(Cl)cc3c2=O)C2=C(CCCC2=O)N1` (stereo not shown) [ST052468, phenylmethyl 4-(6-chloro-4-oxochromen-3-yl)-2-methyl-5-oxo-1,4,6,7,8-pentahydroquinoline-3-carboxylate], the results for the activity at 5 µM with Aβ1-42 (setting [1]) and with Aβ1-40 (setting [2]) were 31.9% and 43.9%, respectively.
`COC(=O)C1=C(C)NC2=C(C(=O)CC(C)(C)C2)C1c1cccc(OCc2ccccc2)c1` (stereo not shown) [ST052360, methyl 2,7,7-trimethyl-5-oxo-4-[3-(phenylmethoxy)phenyl]-1,4,6,7,8-pentahydroquinoline-3-carboxylate]: the activity at 5 µM worked out at 61.6% in the assay with Aβ1-42 (setting [1]) and 55.7% with Aβ1-40 (setting [2]).
`COC(=O)C1=C(C)N(C)C(C)=C(C(=O)OC)C1c1ccccn1` [ST024568, methyl 5-(methoxycarbonyl)-1,2,6-trimethyl-4-(2-pyridyl)-1,4-dihydropyridine-3-carboxylate]: in the assay with Aβ1-42, the “Aβ1-42 (% of control)” value was 70.13 % of control. Further, the “Aβ1-40 (% of control)” value with Aβ1-40 is reported as 67.61 % of control.
For `COC(=O)C1=C(N)n2c(s/c(=C/c3cccnc3)c2=O)=C(C(=O)OC)C1c1cccnc1` (stereo not shown) [ST011768, methyl 5-amino-6-(methoxycarbonyl)-3-oxo-7-(3-pyridyl)-2-(3-pyridylmethylene)-4,7-dihydro-1,3-thiazolidino[3,2-a]pyridine-8-carboxylate] the same measures were 97.83 % of control and 42.71 % of control.
`Cc1ccccc1N1C2=C(C(=O)CC(C)(C)C2)C(c2ccccc2)C2=C1c1ccccc1C2=O` (stereo not shown) [ST024318, 3,3-dimethyl-5-(2-methylphenyl)-11-phenyl-2,3,4,5,11-pentahydroindeno[3,2-b]quinoline-1,10-dione]: the activity at 5 µM in the assay on Aβ1-42 (setting [1]) was 99.5%; with Aβ1-40 (setting [2]), 64.9%.
Regarding `Cn1cccc1/C=c1/sc2n(c1=O)C(N)=C(C#N)C(c1cccn1C)C=2C#N` (stereo not shown) [ST003361, 5-amino-7-(1-methylpyrrol-2-yl)-2-[(1-methylpyrrol-2-yl)methylene]-3-oxo-4,7-dihydro-1,3-thiazolidino[3,2-a]pyridine-6,8-dicarbonitrile], the “Aβ1-42 (% of control)” value in the assay with Aβ1-42 is given as 90.24 % of control. Moreover, the “Aβ1-40 (% of control)” value with Aβ1-40 is 43.9 % of control.
